US20260166159A1, “KRAS G12D DEGRADATION AGENT, AND PREPARATION METHOD AND USE THEREFOR” (LEADINGTAC PHARMACEUTICAL (SHAOXING) CO., LTD., priority 2022, published 2026)

Tests used:
[1] = tested on: KRAS G12D mutant human pancreatic cancer cell Panc 04.03; experiment: 3D cell proliferation inhibition assay, Panc 04.03; assay type: cell-based; details: 168 h, Panc 04.03, 7 days, CTG, numeric values
Text: The inhibitory effects of the compounds on 3D cell proliferation were investigated on KRAS G12D mutant human lung cancer cell A427, KRAS G12D mutant human gastric cancer cell AGS, KRAS G12D mutant human metastatic pancreatic cancer cell AsPc-1, KRAS G12D mutant human pancreatic cancer cell Panc 04.03, KRAS G12D mutant human pancreatic cancer cell HPAC, KRAS G12V mutant human lung squamous cell carcinoma cell SW900, and KRAS WT human gastric cancer cell MKN1. The specific procedures were as follows:
10 μL of each compound solution diluted in a gradient was added to corresponding wells of a 96-well low-adsorption microplate (PerkinElmer), so that the final concentrations of the test compounds in the reaction system were in a range of 10000-0.026 nM. The final concentration of DMSO was 0.2%. Then 90 µL of cells were correspondingly seeded into each well to achieve a cell density of 5×10^2 cells/well (the cell density of SW900 was 5×10^1 cells/well, and the cell density of MKN1 was 1×10^3 cells/well). In addition to test wells for the test compounds, both a DMSO control well and a medium control well were set, with the DMSO control well containing DMSO and cells and the medium well containing only a medium. After the sample loading, the 96-well low-adsorption microplate was incubated in an incubator at 37° C. with 5% carbon dioxide for 7 days. After 7 days, the microplate was taken out, and 100 μL of CTG reagent (Promega) was added to each well. The plate was incubated at room temperature for 60 min and read on a microplate reader EnVision by the chemiluminescence program. The inhibition rates of the compounds at each concentration were calculated using the formula for the percentage inhibition of cell proliferation: inhibition rate %=(mean value of DMSO control group−single concentration reading value of compound)/(mean value of DMSO control group−mean value of medium control group)×100. Then non-linear curve fittings for logarithmic concentration-inhibition rate were performed by GraphPad Prism 8, and the IC50 values of the compounds were obtained (Table 5).

[2] = tested on: KRAS G12D mutant human lung cancer cell A427; experiment: 3D cell proliferation inhibition assay, A427; assay type: cell-based; details: A-427, 168 h, A427, 7 days, CTG, numeric values
Outline: (§1)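 For this 7-day anchorage-independent assay, 5×10^2 cells per well were exposed to 10000–0.026 nM test compound with 0.2% DMSO at 37 °C. ATP-based luminescence (CTG) gave viability, and percent inhibition versus DMSO controls was curve-fitted to obtain IC50.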

[3] = tested on: KRAS G12D mutant human metastatic pancreatic cancer cell AsPc-1; experiment: 3D cell proliferation inhibition assay, AsPc-1; assay type: cell-based; details: ASPC1, 168 h, AsPc-1, 7 days, CTG, numeric values
Outline: as §1

[4] = tested on: KRAS G12D mutant human pancreatic cancer cell HPAC; experiment: 3D cell proliferation inhibition assay, HPAC; assay type: cell-based; details: 168 h, 7 days, CTG
Outline: as §1

[5] = tested on: KRAS G12D mutant human gastric cancer cell AGS; experiment: 3D cell proliferation inhibition assay, AGS; assay type: cell-based; details: 168 h, 7 days, CTG, numeric values
Outline: as §1

[6] = target: T1, Human KRAS G12D 6His-tagged (Homo sapiens, UniProt P01116, G12D); experiment: KRAS-G12D/GTP binding assay (HTRF); details: numeric values
T1 construct: purchased PerkinElmer
Outline: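 Compounds at 0.02-5000 nM final (0.5% DMSO) were tested for blocking GTP Red tracer binding to His-tagged KRAS G12D, detected by Eu-cryptate anti-His antibody after 1 h, 25° C. Inhibition taken from 665/620 nm ratio relative to control, then fitted to give IC50.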

[7] = target: T2, KRAS-G12D (Homo sapiens, UniProt P01116, G12D); experiment: KRAS-G12D degradation assay (Western Blot), AsPc-1 cells; assay type: cell-based; details: for DC50: 24 h; for Dmax: ASPC1, 24 h
T2 construct: endogenous in cells; host or cells: A-427 (ATCC), AGS, AsPc-1, Panc 04.03
Outline: (§2)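 Western blotting of lysates (5 μg protein) quantified KRAS against a β-actin reference after 24 h exposure to compound at final 0.03–3000 nM in 0.25% DMSO. Cells were A-427, AGS, AsPc-1 or Panc 04.03, all KRAS G12D, at 5×10^5/well. Degradation versus control yielded DC50 and Dmax.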

[8] = target: T2, KRAS-G12D; experiment: KRAS-G12D degradation assay (Western Blot), A-427 cells; assay type: cell-based; details: A427 cells, 24 h, numeric values
Outline: as §2

T2 sequence (P01116 1-188 isoform P01116-2 G12D): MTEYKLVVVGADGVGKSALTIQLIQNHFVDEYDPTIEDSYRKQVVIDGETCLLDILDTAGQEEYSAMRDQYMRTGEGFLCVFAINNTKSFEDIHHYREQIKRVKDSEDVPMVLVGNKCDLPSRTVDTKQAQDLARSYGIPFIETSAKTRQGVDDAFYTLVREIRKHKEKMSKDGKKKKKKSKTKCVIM
T1 sequence (P01116 1-188 isoform P01116-2 G12D): as above

| SMILES | IC50 [1] | IC50 [2] | IC50 [3] | IC50 [4] | IC50 [5] | IC50 [6] | DC50 [7] | Dmax [7] | DC50 [8] | Dmax ([8]; A-427) |
| --- | --- | --- | --- | --- | --- | --- | --- | --- | --- | --- |
| C#Cc1c(F)ccc2cc(O)cc(-c3ccc4c(N5CC6CCC(C5)N6)nc(OCC(C)CN5CCN(CC6CCC7(CC6)CCN(C(=O)c6ccc(C)c(N8CCC(=O)NC8=O)c6)CC7)CC5)nc4c3F)c12 (stereo not drawn) [Example 174, 1-(5-(9-((4-(3-((4-(3,8-diazabicyclo[3.2.1]octan-3-yl)-7-(8-ethynyl-7-fluoro-3-hydroxynaphthalen-1-yl)-8-fluoroquinazolin-2-yl)oxy)-2-methylpropyl)piperazin-1-yl)methyl)-3-azaspiro[5.5]undecane-3-carbonyl)-2-methylphenyl)dihydropyrimidine-2,4(1H,3H)-dione] | 31.3 nM | 64.2 nM | 62.5 nM | 1.78 nM | 19.4 nM | 5.19 nM | 13.6 nM | 100% | – | – |
| C#Cc1c(F)ccc2cc(O)cc(-c3ncc4c(N5CC6CCC(C5)N6)nc(OCC5(CN6CCN(CC7CCC8(CC7)CCN(C(=O)c7ccc(CC)c(N9CCC(=O)NC9=O)c7)CC8)CC6)CC5)nc4c3F)c12 [Example 243, 1-(5-(9-((4-((1-(((4-(3,8-diazabicyclo[3.2.1]octan-3-yl)-7-(8-ethynyl-7-fluoro-3-hydroxynaphthalen-1-yl)-8-fluoropyrido[4,3-d]pyrimidin-2-yl)oxy)methyl)cyclopropyl)methyl)piperazin-1-yl)methyl)-3-azaspiro[5.5]undecane-3-carbonyl)-2-ethylphenyl)dihydropyrimidine-2,4(1H,3H)-dione] | 21.7 nM | 121 nM | 2.34 nM | 0.61 nM | 2.16 nM | – | – | – | 1.66 nM | 92.9% |
| C#Cc1c(F)ccc2cc(O)cc(-c3ncc4c(N5CC6CCC(C5)N6)nc(OC[C@H](C)CN5CCN(CC6CCC7(CC6)CCN(C(=O)c6ccc(CC)c(N8CCC(=O)NC8=O)c6)CC7)CC5)nc4c3F)c12 [Example 110, 1-(5-(9-((4-((R)-3-((4-(3,8-diazabicyclo[3.2.1]octan-3-yl)-7-(8-ethynyl-7-fluoro-3-hydroxynaphthalen-1-yl)-8-fluoropyrido[4,3-d]pyrimidin-2-yl)oxy)-2-methylpropyl)piperazin-1-yl)methyl)-3-azaspiro[5.5]undecane-3-carbonyl)-2-ethylphenyl)dihydropyrimidine-2,4(1H,3H)-dione] | 12.5 nM | – | 4.47 nM | 18.6 nM | 5.69 nM | – | 2.56 nM | 99.2% | – | – |
| C#Cc1c(F)ccc2cc(O)cc(-c3ncc4c(N5CC6CCC(C5)N6)nc(OCC5(CN6CCN(CC7CCC8(CCN(C(=O)c9ccc(C)c(N%10CCC(=O)NC%10=O)c9)CC8)CO7)CC6)CC5)nc4c3F)c12 (stereo not drawn) [Example 106, 1-(5-(3-((4-((1-(((4-(3,8-diazabicyclo[3.2.1]octan-3-yl)-7-(8-ethynyl-7-fluoro-3-hydroxynaphthalen-1-yl)-8-fluoropyrido[4,3-d]pyrimidin-2-yl)oxy)methyl)cyclopropyl)methyl)piperazin-1-yl)methyl)-2-oxa-9-azaspiro[5.5]undecane-9-carbonyl)-2-methylphenyl)dihydropyrimidine-2,4(1H,3H)-dione] | 63.5 nM | – | 30.8 nM | 152 nM | 13.4 nM | – | 10.5 nM | 99.5% | – | – |
| [2H]C([2H])([2H])Oc1ccc(C(=O)N2CCC3(CCC(CN4CCN(C[C@@H](C)COc5nc(N6CC7CCC(C6)N7)c6cnc(-c7cc(O)cc8ccc(F)c(C#C)c78)c(F)c6n5)CC4)CC3)CC2)cc1N1CCC(=O)NC1=O [Example 253, 1-(5-(9-((4-((R)-3-((4-(3,8-diazabicyclo[3.2.1]octan-3-yl)-7-(8-ethynyl-7-fluoro-3-hydroxynaphthalen-1-yl)-8-fluoropyrido[4,3-d]pyrimidin-2-yl)oxy)-2-methylpropyl)piperazin-1-yl)methyl)-3-azaspiro[5.5]undecane-3-carbonyl)-2-(methoxy-d3)phenyl)dihydropyrimidine-2,4(1H,3H)-dione] | 18.8 nM | – | 1.59 nM | 10.6 nM | 3.92 nM | – | 1.39 nM | 100% | – | – |
